Results reported in PubChem BioAssay (NCI).
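In this assay, cells in 96-well plates receive the compound at five concentrations for 48 hours. Endpoints are linearly interpolated between the surrounding concentrations. Here, GI50 denotes the concentration required for 50% inhibition of growth. TGI is the concentration that stops growth completely.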

How the values were obtained:
Assay in all cases: NCI-60 cell line screen, 48 h
CAKI-1 renal = system: CAKI-1 renal
DMS 273 small cell lung = system: DMS 273 small cell lung
HCC-2998 colon = system: HCC-2998 colon
HL-60(TB) leukemia = system: HL-60(TB) leukemia
IGROV1 ovarian = system: IGROV1 ovarian
LOX IMVI melanoma = system: LOX IMVI melanoma
SK-MEL-28 melanoma = system: SK-MEL-28 melanoma
SK-OV-3 ovarian = system: SK-OV-3 ovarian
SNB-78 CNS = system: SNB-78 CNS
UO-31 renal = system: UO-31 renal
HS 578T breast = system: HS 578T breast

| Compound | TGI (CAKI-1 renal) [µM] | TGI (DMS 273 small cell lung) [µM] | TGI (HCC-2998 colon) [µM] | TGI (HL-60(TB) leukemia) [µM] | TGI (IGROV1 ovarian) [µM] | TGI (LOX IMVI melanoma) [µM] | TGI (SK-MEL-28 melanoma) [µM] | TGI (SK-OV-3 ovarian) [µM] | TGI (SNB-78 CNS) [µM] | TGI (UO-31 renal) [µM] | TGI (HS 578T breast) [µM] | GI50 (HS 578T breast) [µM] |
| --- | --- | --- | --- | --- | --- | --- | --- | --- | --- | --- | --- | --- |
| O=C1c2cccc(NCCNCCO)c2C(=O)c2cccc(NCCNCCO)c21 | 4.56 | 7.19 | 2.45 | 5.19 | 6.39 | 1.65 | 5.88 | 8.45 | 6.91 | 25.9 |  |  |
| O=[N+]([O-])c1ccc(C2=Nc3ccccc3SC(c3ccccc3)C2)cc1 (centres undefined) | 35.8 | 27.5 | 29 | 40 | 33.3 | 29.3 | 41.6 | 46 | 70.9 | 25.8 |  |  |
| COc1cc(CC(C)N)ccc1O (centres undefined) | > 100 | > 100 | > 100 | > 100 | > 100 | > 100 | > 100 | > 100 | > 100 | > 100 | > 100 |  |
| COc1cc2c(c(O)c1O)-c1ccc(OC)c(=O)cc1C(NC(C)=O)CC2 (centres undefined) | > 100 | > 100 | > 78.1 | 5.29 | > 100 | 34.8 | > 100 | 60.4 | > 100 | > 100 |  |  |
| NC(=O)c1ncn2c1NC(=O)CC2 | > 100 | > 100 | > 100 | > 100 | > 100 | > 100 | > 100 | > 100 | > 86.8 | > 100 |  |  |
| Cc1c2ccncc2c(C)c2c1[nH]c1ccccc12 | 3.81 | 2.22 | 4.87 | 6.78 | 3.76 | 4.2 | 3 | 4.44 | 7.88 | 4.62 | 5.45 | 1.37 |
| C[C@]12CC[C@H](O)C=C1CC[C@@H]1[C@@H]2CC[C@]2(C)C(c3ccc(=O)oc3)CC[C@]12O (some centres undefined) | 0.0225 | 0.0427 | 0.208 | < 0.0125 | 0.164 | 0.242 | 0.222 | 0.065 | 0.503 | 0.041 |  |  |
| CCCCC#CS(=O)(=O)C(F)(F)F | > 100 | > 100 | > 31.6 | 62.9 | > 100 | > 100 | > 100 | > 100 | > 100 | > 100 |  |  |
| COc1c(O)c(O)cc2c1-c1ccc(OC)c(=O)cc1C(NC(C)=O)CC2 (centres undefined) | 95.6 | > 59.8 | 74.8 | 18 | > 100 | 20.6 | > 100 | 32.9 | > 100 | > 100 | > 24.9 |  |
